The values below come from patent US10064800B2, “Transglutaminase activator” (Kao Corporation, priority 2012, dated 2018).

In one experiment the test system is transglutaminase. In words: Measurement of transglutaminase activity in lysate of treated keratinocytes (Transglutaminase Colorimetric Microassay Kit). In kind it is cell-based, human. The following applies: for Transglutaminase activity: HEKn cells, 3 days, relative value, n = 3.
The test system of experiment [1] is Normal human epidermal keratinocytes NHEK(F). In words: Verification of ceramide production enhancing effect (TLC of cell lipids). The experiment is classed as cell-based. Conditions: 3 days, 0.1 μM, relative value, 50 vol % ethanol = 1. The method, then: Normal human epidermal keratinocytes (trade name: NHEK(F), manufactured by Kurabo Industries, Ltd.) were cultured under the conditions of 37° C. and 5% CO2, in a culture medium (trade name: EpiLife-KG2, manufactured by Kurabo Industries, Ltd.) using a culture plate.
Thereafter, the culture medium was exchanged with EpiLife-KG2 without growth factors such as epidermal growth factor, and a dilution prepared from the extract from Justicia procumbens prepared in the Preparation Example 1-2, the concentration of which was adjusted to 1 w/v % in terms of solids content, […] Alternatively, the culture medium was exchanged with EpiLife-KG2 without growth factors such as epidermal growth factor, and a dilution prepared from the extract from Peristrophe japonica prepared in the Preparation Example 2-2, the concentration of which was adjusted to 1 w/v % in terms of solids content, was added to the culture fluid in an amount of 0.1%. […]
Further, 0.1 N NaOH and a 1% aqueous SDS solution were added to the cells from which lipids had been extracted, and the mixture was heated at 60° C. for 2 hours to thereby solubilize proteins. […] The amount of proteins was quantified by the BCA method. […]
A ceramide amount was measured using recovered cells in a manner similar to Test Example 2-1. […]

The subject of a further experiment is IVL gene. In words: Evaluation of IVL gene expression (Real-time RT-PCR, HaCaT). In kind it is cell-based, human. The following applies: 24 hours, 0.01 μM, corrected by RPLPO, relative value, DMSO = 1. The method, then:
Human epidermal keratinocyte line HaCaT was cultured in a culture medium in which 10% fetal calf serum inactivated, and 1% penicillin-streptomycin (manufactured by Gibco Laboratories) were added to DMEM (manufactured by Gibco Laboratories), under conditions of 37° C. and 5% CO2.
In a 6-well plate, HaCaT cells were seeded in an amount of 5×10^4 pieces/well, and cultured. On the following day, exchange was carried out for a culture medium containing the exemplified compound (18) at a final concentration shown in Table 10, and culture was further carried out for 24 hours. In place of the exemplified compound (18), as a control, exchange was carried out for a culture medium containing at a final concentration of 0.1% v/v DMSO being a solvent, and culture was further carried out for 24 hours, and thus the resultant cultured product was used. After 24 hours from addition of the exemplified compound (18), the cells were washed twice using PBS(−), and total RNA was extracted using RNeasy (registered trademark) Mini Kit (manufactured by QIAGEN). A concentration of total RNA was measured, and a fixed amount of total RNA was used as a template, and a reverse transcription reaction was carried out using High capacity RNA-to-cDNA Kit (trade name, manufactured by Applied Biosystems, Inc.).
IVL gene expression was quantitatively determined from the resultant cDNA by Real-time RT-PCR. […]

Setting [2] is: evaluated conc. 1 μM, control DMSO = 1.
[3] abbreviates: evaluated conc. 0.01 μM, control DMSO = 1.
Where [4] appears, read: evaluated conc. 0.1 μM, control DMSO = 1.
[5] abbreviates: fractions from Justicia procumbens extract, result in words.

Like-named read-outs stand apart in the source and are kept apart here.

`COc1cc([C@@H]2c3cc4c(c(OC)c3C[C@H]3COC(=O)[C@@H]32)OCO4)cc(OC)c1OC` [(1), reference compound] showed a Transglutaminase activity in the experiment with transglutaminase (setting [2]) of 0.24 ± 0.21.
`COc1cc([C@@H]2c3cc4c(cc3C[C@H]3COC(=O)[C@@H]32)OCO4)cc(OC)c1OC` [(2), reference compound] came in with a Transglutaminase activity with transglutaminase (setting [2]) of 0.20 ± 0.18.
Consider `COc1c2c(c(-c3ccc4c(c3)OCO4)c3cc4c(cc13)OCO4)C(=O)OC2` [(3), reference compound], for which the figures for the Transglutaminase activity with transglutaminase (setting [3]), in the experiment with transglutaminase (setting [4]) and with transglutaminase (setting [2]) were 0.75 ± 0.49, 0.97 ± 0.43 and 0.70 ± 0.24, respectively.
For `COc1cc2c(OC)c3c(c(-c4cc5c(cc4O)OCO5)c2cc1OC)C(=O)OC3` [(4), reference compound], the results for the Transglutaminase activity with transglutaminase (setting [3]), in the experiment with transglutaminase (setting [4]) and with transglutaminase (setting [2]) were 0.60 ± 0.28, 0.39 ± 0.10 and 0.22 ± 0.08, respectively.
Regarding `O=C1OCc2cc3ccccc3c(-c3ccccc3)c21` [Exemplified compound (11), 9-phenylnaphtho[2,3-c]furan-1(3H)-one], the Transglutaminase activity is 1.10 ± 0.22 in the experiment with transglutaminase (setting [3]), 1.29 ± 0.40 with transglutaminase (setting [4]) and 1.48 ± 0.22 in the experiment on transglutaminase (setting [2]).
Regarding `COc1cc2cc3c(c(-c4ccc5c(c4)OCO5)c2cc1OC)C(=O)OC3` [Exemplified compound (12), 6,7-dimethoxy-9-(1,3-benzodioxol-5-yl)naphtho[2,3-c]furan-1(3H)-one], in experiment [1], the “Ceramide amount (Average value in n = 2)” value is 1.30. Further, the Transglutaminase activity in the experiment on transglutaminase (setting [3]) came to 1.20 ± 0.16; with transglutaminase (setting [4]) it was 2.80 ± 1.73. Besides, in the experiment on transglutaminase (setting [5]), the “Transglutaminase activity of isolated HPLC fraction” value is listed as “confirmed to exist”.
Turning to `COc1cc2c(O)c3c(c(-c4ccc5c(c4)OCO5)c2cc1OC)C(=O)OC3` [Exemplified compound (13), 4-hydroxy-6,7-dimethoxy-9-(1,3-benzodioxol-5-yl)naphtho[2,3-c]furan-1(3H)-one], the Transglutaminase activity in the experiment with transglutaminase (setting [3]) was 1.95 ± 0.53; in the experiment on transglutaminase (setting [4]), 1.75 ± 0.61.
For the compound `COc1cc2c(OC)c3c(c(-c4ccc5c(c4)OCO5)c2cc1OC)C(=O)OC3` [Exemplified compound (14), 4,6,7-trimethoxy-9-(1,3-benzodioxol-5-yl)naphtho[2,3-c]furan-1(3H)-one], the Transglutaminase activity amounted to 1.22 ± 0.51 in the experiment on transglutaminase (setting [3]), 2.42 ± 0.55 in the experiment on transglutaminase (setting [4]) and 2.19 ± 0.98 in the experiment with transglutaminase (setting [2]). The “Transglutaminase activity of isolated HPLC fraction” value in the experiment with transglutaminase (setting [5]) is given as “confirmed to exist”.
Turning to `CCOc1c2c(c(-c3ccc4c(c3)OCO4)c3cc(OC)c(OC)cc13)C(=O)OC2` [Exemplified compound (15), 4-ethoxy-6,7-dimethoxy-9-(1,3-benzodioxol-5-yl)naphtho[2,3-c]furan-1(3H)-one], the Transglutaminase activity in the experiment on transglutaminase (setting [3]) is 1.25 ± 0.22; in the experiment with transglutaminase (setting [4]), 1.33 ± 0.39; in the experiment with transglutaminase (setting [2]), 1.66 ± 0.33.
With `COc1cc2c(OC(C)=O)c3c(c(-c4ccc5c(c4)OCO5)c2cc1OC)C(=O)OC3` [Exemplified compound (16), 4-acetoxy-6,7-dimethoxy-9-(1,3-benzodioxol-5-yl)naphtho[2,3-c]furan-1(3H)-one], the Transglutaminase activity in the experiment on transglutaminase (setting [4]) came out at 1.46 ± 0.54; with transglutaminase (setting [2]) it was 2.10 ± 0.86.
The like results for `O=C1OCc2cc3ccc4c(c3cc21)OCO4` [Exemplified compound (19), furo[3′,4′,6,7]naphtho[1,2-d]-1,3-dioxole-9(7H)-one] were, in that order, 1.98 ± 0.83 and 2.37 ± 0.26.
Take `[Ca+2].[Cl-].[Cl-]` [Positive control (Ca^2+), CaCl2, reference compound]: the Transglutaminase activity with transglutaminase (CaCl2 1.5 mM positive control, control = 1) is given as 1.51 ± 0.20.
For “Tuberculatin-5″-acetate [Exemplified compound (18)]”, the “Transglutaminase activity of isolated HPLC fraction” value in the experiment on transglutaminase is reported as “confirmed to exist”. The Transglutaminase activity in the experiment with transglutaminase (setting [4]) was determined as 2.78 ± 0.19; with transglutaminase (setting [2]), 5.44 ± 0.19. For the same compound, the “IVL gene amount (Average value in n = 2)” value in the experiment with IVL gene was 1.32.
